From ChEMBL document CHEMBL5728238, “Inhibiting agents for Bruton's tyrosine kinase” (2021) come the findings set out here.

A value given as a limit tells only on which side of the number the result lay.

The test has as its target Tyrosine-protein kinase BTK (Homo sapiens, UniProt Q06187). The test is described as follows: In Vitro Kinase Assay: The purpose of the BTK in vitro assay is to determine compound potency against BTK through the measurement of IC50. Compound inhibition is measured after monitoring the amount of phosphorylation of a fluorescein-labeled polyGAT peptide (Invitrogen PV3611) in the presence of active BTK enzyme (Upstate 14-552), ATP, and inhibitor. The BTK kinase reaction was done in a black 96 well plate (costar 3694). For a typical assay, a […] aliquot of a ATP/peptide master mix (final concentration; […], polyGAT 100 nM) in kinase buffer (10 mM Tris-HCl pH 7.5, 10 mM MgCl2, 200 μM Na3PO4, 5 mM DTT, 0.01% Triton X-100, and 0.2 mg/ml casein) is added to each well. Next, […] of a 4-fold, 40× compound titration in 100% DMSO solvent is added, followed by adding 15 μL of BTK enzyme mix in 1× kinase buffer (with a final concentration of 0.25 nM). The assay is incubated for 30 minutes before being stopped with 28 μL of a 50 mM EDTA solution. Aliquots (5 μL) of the kinase reaction are transferred to a low volume white 384 well plate (Corning 3674), and 5 μL of a 2× detection buffer (Invitrogen PV3574, with 4 nM Tb-PY20 antibody, Invitrogen PV3552) is added. The plate is covered and incubated for 45 minutes at room temperature. Time resolved fluorescence (TRF) on Molecular Devices M5 (332 nm excitation; 488 nm emission; 518 nm fluorescein emission) is measured. […].

Sequence of Tyrosine-protein kinase BTK (Q06187 whole entry): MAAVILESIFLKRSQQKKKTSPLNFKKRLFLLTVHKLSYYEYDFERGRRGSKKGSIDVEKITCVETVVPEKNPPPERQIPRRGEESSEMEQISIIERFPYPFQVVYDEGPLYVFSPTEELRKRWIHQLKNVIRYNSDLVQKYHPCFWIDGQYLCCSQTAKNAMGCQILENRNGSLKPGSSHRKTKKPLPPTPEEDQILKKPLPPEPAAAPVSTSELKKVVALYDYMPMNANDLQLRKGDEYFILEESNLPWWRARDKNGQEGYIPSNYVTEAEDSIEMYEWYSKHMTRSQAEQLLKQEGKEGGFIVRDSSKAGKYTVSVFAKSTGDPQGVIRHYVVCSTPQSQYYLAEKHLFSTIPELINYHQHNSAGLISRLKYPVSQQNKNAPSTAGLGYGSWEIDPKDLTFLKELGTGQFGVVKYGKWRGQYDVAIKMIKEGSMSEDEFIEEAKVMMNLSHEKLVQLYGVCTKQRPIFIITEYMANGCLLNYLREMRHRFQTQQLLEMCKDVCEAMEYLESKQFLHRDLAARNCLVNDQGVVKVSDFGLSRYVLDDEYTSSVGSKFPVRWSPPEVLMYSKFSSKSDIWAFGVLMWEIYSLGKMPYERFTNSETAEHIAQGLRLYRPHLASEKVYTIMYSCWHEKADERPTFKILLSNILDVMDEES

A word on the IC50: it is the point on the concentration scale where inhibition reaches its midpoint. Turning to `Cc1cc(-c2ncnc(Nc3cnn(C)c3)n2)ccc1CNC(=O)c1cc(C(C)(C)C)on1`, the IC50 was under 1 nM.
On to `Cc1cc(-c2ncnc(Nc3cnn(C)c3)n2)ccc1CNC(=O)c1noc(C2[C@@H](C)[C@H]2C)n1` (some centres not stated), for which the half-inhibitory concentration (IC50) is under 1 nM.
